≈ marks a conversion by molar mass, not a printed value.
tested on: Staphylococcus aureus; experiment: Antibacterial activity against Staphylococcus aureus isolate 42 […] by CLSI method; type: functional

| SMILES | MIC [µg/mL] |
| --- | --- |
| CCCCCCCCCC(=O)N[C@@H](Cc1c[nH]c2ccccc12)C(=O)N[C@@H](CC(N)=O)C(=O)N[C@@H](CC(=O)O)C(=O)N[C@@H]1C(=O)NCC(=O)N[C@@H](CCCN)C(=O)N[C@@H](CC(=O)O)C(=O)N[C@H](C)C(=O)N[C@@H](CC(=O)O)C(=O)NCC(=O)N[C@H](CO)C(=O)N[C@@H]([C@H](C)CC(N)=O)C(=O)N[C@@H](CC(=O)c2ccccc2N)C(=O)O[C@@H]1C | 32 (≈ 19.8 µM) |
| CCCCCCCCCC(=O)N[C@@H](Cc1c[nH]c2ccccc12)C(=O)N[C@@H](CC(N)=O)C(=O)N[C@@H](CC(=O)O)C(=O)N[C@@H]1C(=O)NCC(=O)N[C@@H](CCCN)C(=O)N[C@@H](CC(=O)O)C(=O)N[C@H](C)C(=O)N[C@@H](CC(=O)O)C(=O)NCC(=O)N[C@H](CO)C(=O)N[C@@H](C(C)(C)CC(=O)O)C(=O)N[C@@H](CC(=O)c2ccccc2N)C(=O)O[C@@H]1C | 64 (≈ 39.2 µM) |
| CCCCCCCCCC(=O)N[C@@H](Cc1c[nH]c2ccccc12)C(=O)N[C@@H](CC(N)=O)C(=O)N[C@@H](CC(=O)O)C(=O)N[C@@H]1C(=O)NCC(=O)N[C@@H](CCCN)C(=O)N[C@@H](CC(=O)O)C(=O)N[C@H](C)C(=O)N[C@@H](CC(=O)O)C(=O)NCC(=O)N[C@H](CO)C(=O)N[C@@H]([C@H](CC)CC(=O)O)C(=O)N[C@@H](CC(=O)c2ccccc2N)C(=O)O[C@@H]1C | 8 (≈ 4.89 µM) |
| CCCCCCCCCC(=O)N[C@@H](Cc1c[nH]c2ccccc12)C(=O)N[C@H](CC(N)=O)C(=O)N[C@@H](CC(=O)O)C(=O)N[C@@H]1C(=O)NCC(=O)N[C@@H](CCCN)C(=O)N[C@@H](CC(=O)O)C(=O)N[C@H](C)C(=O)N[C@@H](CC(=O)O)C(=O)NCC(=O)N[C@H](CO)C(=O)N[C@@H]([C@H](C)CC(=O)O)C(=O)N[C@@H](CC(=O)c2ccccc2N)C(=O)O[C@@H]1C | 0.5 (≈ 0.309 µM) |
| CCCCCCCCCC(=O)N[C@@H](Cc1c[nH]c2ccccc12)C(=O)N[C@@H](CC(N)=O)C(=O)N[C@@H](CC(=O)O)C(=O)N[C@@H]1C(=O)NCC(=O)N[C@@H](CCCN)C(=O)N[C@@H](CC(=O)O)C(=O)N[C@H](C)C(=O)N[C@@H](CC(=O)O)C(=O)NCC(=O)N[C@H](CO)C(=O)N[C@@H](C(C)CC(=O)O)C(=O)N[C@@H](CC(=O)c2ccccc2N)C(=O)O[C@@H]1C (single isomer, unassigned) [DAPTOMYCIN] | 128 (≈ 79 µM) |

Reference: ChEMBL document CHEMBL4000217, “Structure-activity relationship of daptomycin analogues with substitution at (2S, 3R) 3-methyl glutamic acid position” (2017)
